The record followed here is patent US11608335B2, “Somatostatin modulators and uses thereof” (CRINETICS PHARMACEUTICALS, INC., priority 2018, dated 2023).

Like-named read-outs stand apart in the source and are kept apart here. A value given as a limit tells only on which side of the number the result lay.

For assay [1], the target named is T1, human somatostatin receptor subtype 2 (Homo sapiens, UniProt P30874).
T1 construct: expressed in transfected cells
In words: cAMP assay for SST2R (inhibition of cAMP via human SST2 receptor). It counts as cell-based. The conditions noted are these: Table B, read-out: SST2 potency. The text has this: cAMP Assay Protocol for SST2R:

The target of assay [2] is human somatostatin receptor subtype 5 (Homo sapiens, UniProt P35346). The assay can be described thus: cAMP assay for SST5R (inhibition of cAMP via human SST5 receptor).
human somatostatin receptor subtype 5, sequence (P35346 whole entry): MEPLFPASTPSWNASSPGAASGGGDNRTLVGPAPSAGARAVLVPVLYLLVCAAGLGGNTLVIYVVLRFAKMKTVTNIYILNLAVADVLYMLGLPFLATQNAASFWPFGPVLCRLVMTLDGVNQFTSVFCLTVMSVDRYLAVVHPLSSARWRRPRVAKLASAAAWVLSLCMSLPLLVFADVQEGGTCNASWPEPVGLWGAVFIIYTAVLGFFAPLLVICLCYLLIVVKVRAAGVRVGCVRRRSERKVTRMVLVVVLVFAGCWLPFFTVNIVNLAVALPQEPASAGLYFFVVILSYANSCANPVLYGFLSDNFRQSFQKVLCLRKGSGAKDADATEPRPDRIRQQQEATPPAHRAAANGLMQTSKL
Where [3] appears, read: SST5 over SST2, given as number (comparison compounds).
Where [4] appears, read: read-out: SST5 potency, inhibition of cAMP via human SST5 receptor, Table B.

T1 sequence (P30874 whole entry): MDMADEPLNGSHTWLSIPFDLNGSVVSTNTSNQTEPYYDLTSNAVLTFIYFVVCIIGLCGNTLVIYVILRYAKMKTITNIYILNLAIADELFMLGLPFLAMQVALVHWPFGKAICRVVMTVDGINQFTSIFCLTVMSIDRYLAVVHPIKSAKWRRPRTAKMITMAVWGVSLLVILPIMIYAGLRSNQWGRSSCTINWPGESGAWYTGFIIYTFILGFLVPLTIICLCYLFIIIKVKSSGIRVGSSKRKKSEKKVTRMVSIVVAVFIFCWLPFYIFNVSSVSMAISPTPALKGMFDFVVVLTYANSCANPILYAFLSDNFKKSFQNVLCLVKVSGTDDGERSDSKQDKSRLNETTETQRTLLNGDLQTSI

For `Cc1ccnc2nc(-c3cncc(-c4cccc(Cl)c4)c3N3CCC(N)CC3)[nH]c12`, the EC50 in assay [1] is 0.01 to 0.1 µM; in assay [2], more than 1 µM. The “Fold selectivity for SST5 vs SST2” value in assay [2] (setting [3]) was 0.009.

`Cc1cccc(-c2cncc(-c3nc4c(C)cccc4[nH]3)c2N2CCC(N)CC2)c1`: the EC50 in assay [1] is less than 0.01 µM; in assay [2] it was more than 1 µM. Further, the “Fold selectivity for SST5 vs SST2” value in assay [2] (setting [3]) is reported as 0.002.

For `Cc1cc(F)cc(-c2cncc(-c3nc4cccc(Cl)c4[nH]3)c2N2CCC(N)CC2)c1`, the EC50 in assay [1] was less than 0.01 µM; in assay [2], 0.1 to 1 µM. In assay [2] (setting [3]), the “Fold selectivity for SST5 vs SST2” value is recorded as 0.0008.

In the case of `Cc1cc(F)cc(-c2cncc(-c3nc4cccc(Cl)c4[nH]3)c2N2CC(CN)C2)c1` [Compound 1-3, 1-{1-[3-(4-chloro-1H-1,3-benzodiazol-2-yl)-5-(3-fluoro-5-methylphenyl)pyridin-4-yl]azetidin-3-yl}methanamine], the values for the EC50 in assay [1], in assay [2] and in assay [2] (setting [4]) were 0.1 to 1 µM, less than 0.01 µM and less than 0.01 µM, respectively. The “Fold selectivity for SST5 vs SST2” value in assay [2] (SST5 over SST2, class symbols) is “++ (++=100 to 499)”.

Turning to `Cc1cc(F)cc(-c2cncc(-c3nc4cc(Cl)ccc4[nH]3)c2N2CC(CN)C2)c1` [Compound 1-4, 1-{1-[3-(5-chloro-1H-1,3-benzodiazol-2-yl)-5-(3-fluoro-5-methylphenyl)pyridin-4-yl]azetidin-3-yl}methanamine], the EC50 was more than 1 µM in assay [1], 0.01 to 0.1 µM in assay [2] and 0.01 to 0.1 µM in assay [2] (setting [4]). Besides, in assay [2] (SST5 over SST2, class symbols), the “Fold selectivity for SST5 vs SST2” value is recorded as “++ (++=100 to 499)”.

For `Cc1cc(F)cc(-c2cncc(-c3nc4cccc(C#N)c4[nH]3)c2N2CC(CN)C2)c1` [Compound 1-5, 2-{4-[3-(aminomethyl)azetidin-1-yl]-5-(3-fluoro-5-methylphenyl)pyridin-3-yl}-1H-1,3-benzodiazole-4-carbonitrile], the EC50 in assay [1] is more than 1 µM; in assay [2] it was 0.01 to 0.1 µM; in assay [2] (setting [4]), 0.01 to 0.1 µM. In addition, the “Fold selectivity for SST5 vs SST2” value in assay [2] (SST5 over SST2, class symbols) was “+++ (+++=≥500)”.

As for `Cc1cc(F)cc(-c2cncc(-c3nc4c(F)cc(F)cc4[nH]3)c2N2CC(CN)C2)c1` [Compound 1-7, 1-{1-[3-(4,6-difluoro-1H-1,3-benzodiazol-2-yl)-5-(3-fluoro-5-methylphenyl)pyridin-4-yl]azetidin-3-yl}methanamine], the EC50 in assay [1] is more than 1 µM; in assay [2] it was less than 0.01 µM; in assay [2] (setting [4]), less than 0.01 µM. In addition, the “Fold selectivity for SST5 vs SST2” value in assay [2] (SST5 over SST2, class symbols) is “+++ (+++=≥500)”.

On to `Cc1cc(F)cc(-c2cncc(-c3nc4cccc(C)c4[nH]3)c2N2CC(CN)C2)c1` [Compound 1-9, 1-{1-[3-(3-fluoro-5-methylphenyl)-5-(4-methyl-1H-1,3-benzodiazol-2-yl)pyridin-4-yl]azetidin-3-yl}methanamine], for which the EC50 in assay [1] is more than 1 µM; in assay [2] it was less than 0.01 µM; in assay [2] (setting [4]), less than 0.01 µM. Further, in assay [2] (SST5 over SST2, class symbols), the “Fold selectivity for SST5 vs SST2” value was “+++ (+++=≥500)”.

Take `Cc1cc(F)cc(-c2cncc(-c3nc4cc(C)ccc4[nH]3)c2N2CC(CN)C2)c1` [Compound 1-10, 1-{1-[3-(3-fluoro-5-methylphenyl)-5-(5-methyl-1H-1,3-benzodiazol-2-yl)pyridin-4-yl]azetidin-3-yl}methanamine]: the EC50 was more than 1 µM in assay [1], less than 0.01 µM in assay [2] and less than 0.01 µM in assay [2] (setting [4]). Further, the “Fold selectivity for SST5 vs SST2” value in assay [2] (SST5 over SST2, class symbols) is “+++ (+++=≥500)”.

In the case of `Cc1cc(F)cc(-c2cncc(-c3nc4c(F)ccc(F)c4[nH]3)c2N2CC(CN)C2)c1` [Compound 1-37, 1-{1-[3-(4,7-difluoro-1H-1,3-benzodiazol-2-yl)-5-(3-fluoro-5-methylphenyl)pyridin-4-yl]azetidin-3-yl}methanamine], the results for the EC50 in assay [1], in assay [2] and in assay [2] (setting [4]) were more than 1 µM, less than 0.01 µM and less than 0.01 µM, respectively. Moreover, the “Fold selectivity for SST5 vs SST2” value in assay [2] (SST5 over SST2, class symbols) is reported as “+++ (+++=≥500)”.

Regarding `NCC1CN(c2c(-c3cc(F)cc(Cl)c3)cncc2-c2nc3cc(F)cc(F)c3[nH]2)C1` [Compound 1-39, 1-{1-[3-(3-chloro-5-fluorophenyl)-5-(4,6-difluoro-1H-1,3-benzodiazol-2-yl)pyridin-4-yl]azetidin-3-yl}methanamine], the EC50 in assay [1] is more than 1 µM; in assay [2] it was less than 0.01 µM; in assay [2] (setting [4]), less than 0.01 µM. In addition, the “Fold selectivity for SST5 vs SST2” value in assay [2] (SST5 over SST2, class symbols) is on record as “+++ (+++=≥500)”.

`CC(N)C1(C)CN(c2c(-c3cccc(F)c3)cncc2-c2nc3cc(F)cc(F)c3[nH]2)C1` (stereo not shown) [Compound 1-68, 1-{1-[3-(4,6-difluoro-1H-1,3-benzodiazol-2-yl)-5-(3-fluorophenyl)pyridin-4-yl]-3-methylazetidin-3-yl}ethan-1-amine]: the EC50 in assay [1] is more than 1 µM; in assay [2], less than 0.01 µM; in assay [2] (setting [4]), less than 0.01 µM. Also, the “Fold selectivity for SST5 vs SST2” value in assay [2] (SST5 over SST2, class symbols) is reported as “+++ (+++=≥500)”.

Consider `CC(N)C1(C)CN(c2c(-c3cccc(C(F)(F)F)c3)cncc2-c2nc3cc(F)cc(F)c3[nH]2)C1` (stereo not shown) [Compound 1-69, 1-{1-[3-(4,6-difluoro-1H-1,3-benzodiazol-2-yl)-5-[3-(trifluoromethyl)phenyl]pyridin-4-yl]-3-methylazetidin-3-yl}ethan-1-amine], for which the EC50 in assay [1] was more than 1 µM; in assay [2], less than 0.01 µM; in assay [2] (setting [4]), less than 0.01 µM. The “Fold selectivity for SST5 vs SST2” value in assay [2] (SST5 over SST2, class symbols) is “+++ (+++=≥500)”.

As for `CC(N)C1(C)CN(c2c(-c3cccc(C#N)c3)cncc2-c2nc3cc(F)cc(F)c3[nH]2)C1` (stereo not shown) [Compound 1-70, 3-{4-[3-(1-aminoethyl)-3-methylazetidin-1-yl]-5-(4,6-difluoro-1H-1,3-benzodiazol-2-yl)pyridin-3-yl}benzonitrile], the EC50 in assay [1] was more than 1 µM; in assay [2], less than 0.01 µM; in assay [2] (setting [4]), less than 0.01 µM. Further, in assay [2] (SST5 over SST2, class symbols), the “Fold selectivity for SST5 vs SST2” value was “+++ (+++=≥500)”.

On to `Cc1cc(F)cc(-c2cncc(-c3nc4cc(F)cc(F)c4[nH]3)c2N2CCC(N)C2)c1` (stereo not shown) [Compound 2-1, 1-[3-(4,6-difluoro-1H-1,3-benzodiazol-2-yl)-5-(3-fluoro-5-methylphenyl)pyridin-4-yl]pyrrolidin-3-amine], for which the EC50 in assay [1] lay within 0.1 to 1 µM.

For the compound `N[C@H]1CCN(c2c(-c3cc(F)cc(Cl)c3)cncc2-c2nc3c(F)cccc3[nH]2)C1` [Compound 2-3, (3 S)-1-[3-(3-chloro-5-fluorophenyl)-5-(4-fluoro-1H-1,3-benzodiazol-2-yl)pyridin-4-yl]pyrrolidin-3-amine], the EC50 in assay [1] lay in the range of 0.1 to 1 µM.

Turning to `N#Cc1cc(F)cc(-c2cncc(-c3nc4c(F)cccc4[nH]3)c2N2CC[C@H](N)C2)c1` [Compound 2-8, 3-{4-[(3S)-3-aminopyrrolidin-1-yl]-5-(4-fluoro-1H-1,3-benzodiazol-2-yl)pyridin-3-yl}-5-fluorobenzonitrile], in assay [1], the EC50 was more than 1 µM.

For the compound `N#Cc1cc(-c2cncc(-c3nc4c(Cl)cccc4[nH]3)c2N2CC[C@H](N)C2)ccc1F` [Compound 2-51, 5-{4-[(3S)-3-aminopyrrolidin-1-yl]-5-(4-chloro-1H-1,3-benzodiazol-2-yl)pyridin-3-yl}-2-fluorobenzonitrile], in assay [1], the EC50 lay in the range of 0.1 to 1 µM.

Turning to `Cc1cc(F)cc(-c2cncc(-c3nc4c(F)cccc4[nH]3)c2N2CC[C@H](N)C2)c1` [Compound 2-193, (3S)-1-[3-(4-fluoro-1H-1,3-benzodiazol-2-yl)-5-(3-fluoro-5-methylphenyl)pyridin-4-yl]pyrrolidin-3-amine], in assay [1], the EC50 fell in the range of 0.1 to 1 µM.
